We go through 16 compounds from ChEMBL document CHEMBL3243945, “Antiinflammatory activity of isomeric phenylnaphthaleneacetic acids” (J Med Chem, 1977).

A short description of data set [1]: Dissociation constant, pKa of the compound in DMF-H2O (6.7% v/v) by titration method. Format: physicochemical.
The next data set has as its system Cavia porcellus. Kind of data set: Antiinflammatory activity in depilated albino guinea pig assessed as suppression of UV radiation-induced skin erythema compound administered via gavage measured 2 hrs after UV irradiation exposure. Format: functional. Particulars: light or radiation study, po, read-out: MED.

Regarding `O=C(O)Cc1cccc2c(-c3ccccc3)cccc12`, the pKa (in general, the pH at which an ionisable group is half protonated) in data set [1] turned out to be 6.7. Moreover, in the data set on Cavia porcellus, the minimal effective dose came out at 0.1 mg/kg. On the same counts, the results for `O=C(O)Cc1c(-c2ccccc2)ccc2ccccc12` are 6.9 and over 50 mg/kg. Compound `O=C(O)Cc1cc(-c2ccccc2)cc2ccccc12` had a pKa in data set [1] of 6.7. The minimal effective dose with Cavia porcellus stood at 50 mg/kg. On the same counts, the results for `O=C(O)Cc1ccc(-c2ccccc2)c2ccccc12` are 6.8 and 0.1 mg/kg. On the same counts, the results for `O=C(O)Cc1cccc2cc(-c3ccccc3)ccc12` are 6.9 and 25 mg/kg. On the same counts, the results for `O=C(O)Cc1cccc2ccc(-c3ccccc3)cc12` are 6.9 and 100 mg/kg. `O=C(O)Cc1ccc2ccccc2c1-c1ccccc1` had a pKa in data set [1] of 7.2. Also, the minimal effective dose with Cavia porcellus is over 200 mg/kg.

As for `O=C(O)Cc1cc2ccccc2cc1-c1ccccc1`, the pKa in data set [1] was found to be 7.1. In the data set on Cavia porcellus, the minimal effective dose is over 200 mg/kg.

Compound `O=C(O)Cc1cc(-c2ccccc2)c2ccccc2c1` had a pKa in data set [1] of 7. The minimal effective dose in the data set on Cavia porcellus was found to be 100 mg/kg. In turn, `O=C(O)Cc1ccc2c(-c3ccccc3)cccc2c1` had a pKa in data set [1] of 6.6. In addition, the minimal effective dose with Cavia porcellus was determined as 3.1 mg/kg.

Turning to `O=C(O)Cc1ccc2cc(-c3ccccc3)ccc2c1`, the pKa in data set [1] was found to be 6.6. Further, the minimal effective dose in the data set on Cavia porcellus amounted to 3.1 mg/kg. On the same counts, the results for `O=C(O)Cc1ccc2ccc(-c3ccccc3)cc2c1` are 6.7 and over 50 mg/kg.

`O=C(O)Cc1ccc2cccc(-c3ccccc3)c2c1`: in data set [1], the pKa was 6.8. For the same compound, the minimal effective dose in the data set with Cavia porcellus is over 100 mg/kg. With `COc1ccc2c(c1)c(CC(=O)O)c(C)n2C(=O)c1ccc(Cl)cc1` [INDOMETHACIN], the minimal effective dose with Cavia porcellus was determined as 1.7 mg/kg. With `Cc1ccc(Cl)c(Nc2ccccc2C(=O)O)c1Cl` [MECLOFENAMIC ACID], the minimal effective dose with Cavia porcellus is 0.4 mg/kg. The same measure, in the same setting: the result for `CCCCC1C(=O)N(c2ccccc2)N(c2ccccc2)C1=O` [PHENYLBUTAZONE] reads 5.3 mg/kg.
